Tested on: SrUGT76G1
Assay: In vitro UDP-glucosyltransferase activity assay with GST-SrUGT76G1
Format: biochemical, Stevia rebaudiana
Details: for product formed by GST-SrUGT76G1 from the acceptor (TLC): 50 μM substrate, UDP-glucose donor, 30° C., 2 h; for product formed by GST-UGT76G1 from the acceptor (HPLC): 5 mM UDP-glucose, 16 h
Method: Expression of recombinant UGT76G1 and UDP-glucosyltransferase activity assay: The full-length cDNA of SrUGT76G1 was cloned into pDEST15 to obtain GST-tag fused protein. The resulting expression vector was transformed into E. Coli BL21 (DE3)-derived Rosetta strain (Novagen) and grown under appropriate antibiotics. GST-tagged SrUGT76G1 recombinant protein was purified by glutathione agarose beads (ThermoFisher Scientific). About 1 μg of recombinant protein was used for enzyme assay with 50 μM of the substrate (dulcoside A or Reb A) in an assay buffer (50 mM HEPES, pH 7.5, 3 mM MgCl2, 10 μg/ml Bovine Serum Albumin). To initiate the reaction, a 1 mM UDP-glucose mixture (997.5 μM UDP-glucose and […] UDP-[^14C]-glucose, 2.78 kBq, Amersham Biosciences) was added. In vitro glucosyltransferase activity assays were performed as described by Richman et al. (2005). The assay was carried out at 30° C. for 2 h and extracted twice with 100 μl of water-saturated 1-butanol. Pooled fractions were dried in a vacuum centrifuge and resuspended in 10 μl water-saturated 1-butanol for thin layer chromatography (TLC) analysis. The TLC was performed with 10 μl of reaction products using chloroform:methanol:water (15:10:2 v/v/v) as the mobile phase on a silica gel-coated TLC plate (Fluka) in a mobile phase saturated glass chamber. SGs standards were run under the same condition. After air-drying, the image on the TLC plate was captured on a storage phosphor screen in a phosphorimager cassette (Bio-Rad) for 2-3 d and visualized on a Typhoon 9200 imager (Amersham Biosciences).
HPLC analysis of in vitro glucosyltransferase activity assay mixture: In vitro glucosyltransferase activity assay was performed as indicated in the TLC analysis, but 5 mM of UDP-glucose was used without UDP-[^14C]-glucose and the incubation time was increased to 16 h. Samples were extracted 3 times with water-saturated 1-butanol and dried completely in a vacuum centrifuge. Dried samples were dissolved in MeOH for UHPLC analysis in accordance with the method mentioned for SGs content analysis.

Row | product formed by GST-SrUGT76G1 from the acceptor (TLC) | product formed by GST-UGT76G1 from the acceptor (HPLC) | SMILES
1 | Reb C | Reb C | C=C1C[C@@]23CC[C@H]4[C@@](C)(CCC[C@@]4(C)C(=O)O[C@@H]4O[C@H](CO)[C@@H](O)[C@H](O)[C@H]4O)[C@@H]2CC[C@]1(O[C@@H]1O[C@H](CO)[C@@H](O)[C@H](O)[C@H]1O[C@@H]1O[C@@H](C)[C@H](O)[C@@H](O)[C@H]1O)C3 [dulcoside A]
2 | – | Reb I | C=C1C[C@@]23CC[C@H]4[C@@](C)(CCC[C@@]4(C)C(=O)O[C@@H]4O[C@H](CO)[C@@H](O)[C@H](O)[C@H]4O)[C@@H]2CC[C@]1(O[C@@H]1O[C@H](CO)[C@@H](O)[C@H](O[C@@H]2O[C@H](CO)[C@@H](O)[C@H](O)[C@H]2O)[C@H]1O[C@@H]1O[C@H](CO)[C@@H](O)[C@H](O)[C@H]1O)C3 [Reb A, rebaudioside A]
3 | Reb A | Reb A | C=C1C[C@@]23CC[C@H]4[C@@](C)(CCC[C@@]4(C)C(=O)O[C@@H]4O[C@H](CO)[C@@H](O)[C@H](O)[C@H]4O)[C@@H]2CC[C@]1(O[C@@H]1O[C@H](CO)[C@@H](O)[C@H](O)[C@H]1O[C@@H]1O[C@H](CO)[C@@H](O)[C@H](O)[C@H]1O)C3 [stevioside]

Reference: patent US20210123066A1, “METHODS OF REGENERATION AND TRANSFORMATION OF STEVIA PLANT AND TRANSGENIC STEVIA PLANTS HAVING ENHANCED STEVIOL GLYCOSIDES CONTENT” (TEMASEK LIFE SCIENCES LABORATORY LIMITED, priority 2018, published 2021)
